In US20140377219A1, “HIV INHIBITORS” (New york Blood Center, Inc., priority 2011, published 2014):
Like-named read-outs stand apart in the source and are kept apart here.

Legend:
[1] = molecular target: CD4 (Homo sapiens, UniProt P01730); assay: Surface plasmon resonance (SPR), ligand CD4; assay type: binding
[2] = molecular target: T1, HIV-1IIIB gp120 and sCD4 (Human immunodeficiency virus type 1 group M subtype B, UniProt P03375); assay: biochemical; assay type: binding; conditions: read-out: IC50 (μM ± SD), interaction HIV-1IIIB gp120 and sCD4
T1 construct: recombinant gp120 from HIV-1IIIB and HIV-1MN
Method: (§1) The compounds were incubated at graded concentrations with sCD4 (0.25 μg/ml) in the wells of polystyrene plates containing recombinant gp120, which was captured by coating the plates with a sheep anti-gp120 antibody D7324.

[3] = molecular target: T2, HIV-1MN gp120 and sCD4 (Human immunodeficiency virus type 1 group M subtype B, UniProt P05877); assay: biochemical; assay type: binding; conditions: read-out: IC50 (μM ± SD), interaction HIV-1MN gp120 and sCD4
T2 construct: recombinant gp120 from HIV-1IIIB and HIV-1MN
Method: as §1

[4] = molecular target: gp120 (Human immunodeficiency virus type 1 group M subtype B, UniProt P03375); assay: biochemical; assay type: binding, HIV-1
[5] = tested on: primary HIV-1 isolate 93IN101 (subtype C, R5); assay: Neutralization assay in PBMC (p24 ELISA); conditions: read-out: IC50 (μM) ± S.D., inhibitory activity on infection
Method: (§3) The inhibitory activity of small molecules on infection by primary HIV-1 isolates was determined. PBMCs were isolated from the blood of healthy donors at the New York Blood Center by standard density-gradient centrifugation using Histopaque-1077 (Sigma-Aldrich). The cells were cultured at 37° C. for 2 h. Non-adherent cells were collected and resuspended at 5×10^6 cells/ml in RPMI-1640 medium containing 10% (v/v) fetal bovine serum, 5 μg/ml of phytohemagglutinin, and 100 U/ml of IL-2 (Sigma-Aldrich), followed by incubation at 37° C. for three days.

[6] = Cytotoxicity in MT-2 cells (XTT); assay type: cell-based; conditions: human; MT-2 cells, XTT, four days
Method: (§2) Cytotoxicity of small molecules in MT-2 cells and PBMC was measured by the XTT ((sodium 3′-(1-(phenylamino)-carbonyl)-3,4-tetrazolium-bis(4-methoxy-6-nitro)benzene-sulfonic acid hydrate)) method. Briefly, for MT-2 cells, 100 μl of a small molecule at graded concentrations was added to an equal volume of cells (10^5 cells/ml) in 96-well plates followed by incubation at 37° C. for four days, which ran parallel with the neutralization assay in MT-2 (except medium was added instead of virus). In the case of PBMC, 5×10^5 cells/ml was used and the cytotoxicity was measured after seven days. […] The percentage cytotoxicity and the CC50 values were calculated as described above.

[7] = tested on: HIV-1 RF/L-323-12-3 (protease resistant isolate); assay: Multi-cycle neutralization assay in MT-2 cells
[8] = tested on: primary HIV-1 isolate 93BR029 (clade F, R5); assay: Neutralization assay in PBMC (p24 ELISA); conditions: read-out: IC50 (μM) ± S.D., inhibitory activity on infection
Method: (§4) PBMCs were isolated from the blood of healthy donors at the New York Blood Center by standard density-gradient centrifugation using Histopaque-1077 (Sigma-Aldrich). The cells were cultured at 37° C. for 2 h. Non-adherent cells were collected and resuspended at 5×10^6 cells/ml in RPMI-1640 medium containing 10% (v/v) fetal bovine serum, 5 μg/ml of phytohemagglutinin, and 100 U/ml of IL-2 (Sigma-Aldrich), followed by incubation at 37° C. for three days.

[9] = tested on: primary HIV-1 isolate 92UG031 (subtype A, R5); assay: Neutralization assay in PBMC (p24 ELISA); conditions: read-out: IC50 (μM) ± S.D., inhibitory activity on infection
Method: as §3

[10] = Cytotoxicity in PBMC (XTT); assay type: cell-based; conditions: human; PBMC, XTT, seven days
Method: as §2

[11] = tested on: PBMC; assay: Cytotoxicity in PBMC (XTT); assay type: cell-based; conditions: for % toxicity at that dose (number in parenthesis), PBMC: at the dose given as CC50 bound; for CC50: PBMC, XTT, seven days, read-out: PBMC CC50
Method: as §2

[12] = tested on: HIV-1 RF; assay: Multi-cycle neutralization assay in MT-2 cells
[13] = tested on: primary HIV-1 isolate RU570 (clade G, R5); assay: Neutralization assay in PBMC (p24 ELISA); conditions: read-out: IC50 (μM) ± S.D., inhibitory activity on infection
Method: as §4

[14] = tested on: HIV-1 SF2; assay: Multi-cycle neutralization assay in MT-2 cells
[15] = tested on: AZT-resistant (AZT-R) HIV-1 strain; assay: Multi-cycle neutralization assay in MT-2 cells
[16] = tested on: HIV-1 BaL; assay: Neutralization assay in PBMC (p24 ELISA)
Method: as §4

[17] = tested on: HIV-1 MN; assay: Multi-cycle neutralization assay in MT-2 cells
Method: In brief, 1×10^4 MT-2 cells were infected with HIV-1 at 100 TCID50 (50% tissue culture infective dose) (0.01MOI) in 200 μl medium in the presence or absence of small molecules at graded concentrations and incubated overnight. The culture supernatants were then removed and replaced with fresh media. On the fourth day post-infection, 100 μl of culture supernatants were collected from each well, mixed with equal volume of 5% Triton X-100 and tested for p24 antigen by sandwich-ELISA. The percent inhibition of p24 production and IC50 values were calculated by the GraphPad Prism software (GraphPad Software Inc.).

[18] = tested on: laboratory-adapted HIV-1 IIIB strain; assay: microbe, parasite or virus in culture; conditions: Human immunodeficiency virus 1, IIIB, MT2, read-out: IC50 (μM) ± S.D., inhibitory activity on infection
[19] = tested on: primary HIV-1 isolate 92US657 (subtype B, R5); assay: Neutralization assay in PBMC (p24 ELISA); conditions: read-out: IC50 (μM) ± S.D., inhibitory activity on infection
Method: as §4

[20] = tested on: primary HIV-1 isolate BCF02 (Group 0, R5); assay: Neutralization assay in PBMC (p24 ELISA); conditions: read-out: IC50 (μM) ± S.D., inhibitory activity on infection
Method: as §3

[21] = tested on: primary HIV-1 isolate 93TH060 (subtype E, R5); assay: Neutralization assay in PBMC (p24 ELISA); conditions: read-out: IC50 (μM) ± S.D., inhibitory activity on infection
Method: as §3

[22] = tested on: HIV-1 89.6; assay: Neutralization assay in PBMC (p24 ELISA); conditions: read-out: IC50 (μM) ± S.D., inhibitory activity on infection
Method: as §3

[23] = tested on: HIV-1 SF162; assay: Neutralization assay in PBMC (p24 ELISA); conditions: read-out: IC50 (μM) ± S.D., inhibitory activity on infection
Method: as §4

[24] = tested on: MT-2 cells; assay: Cytotoxicity in MT-2 cells (XTT); assay type: cell-based; conditions: for CC50: MT-2 cells, XTT, four days, read-out: MT-2 Cells CC50
Method: as §2

[25] = tested on: laboratory-adapted HIV-1 IIIB strain
[26] = tested on: TZM-bl cells; assay: Cytotoxicity in TZM-bl cells (XTT); assay type: cell-based
Method: The cytotoxicity of small molecules in TZM-bl cells was measured by a colorimetric method using XTT (sodium 3′-(1-(phenylamino)-carbonyl)-3,4-tetrazolium-bis(4-methoxy-6-nitro)benzenesulfonic acid hydrate), a light yellowish tetrazolium dye. Briefly, 100 μl of a compound at graded concentrations was added to equal volume of cells (10^5/ml) in wells of 96-well plates followed by incubation at 37° C. for 3 days and addition of XTT (PolySciences, Inc., Warrington, Pa.).

[27] = tested on: pNL4-3 gp41 (36G) V38E, N42S (fusion resistant isolate); assay type: cell-based, HIV-1; conditions: subtype B, MT-2, X4, fusion resistant isolate, read-out: IC50 (μM) ± S.D., inhibitory activity on infection
[28] = tested on: CD4-dependent virus (ADA); assay type: cell-based; conditions: ADA in Cf2Th-CD4+-CCR5+ target cells, FIG. 5; read-out: IC50, inhibition of the CD4-dependent virus
[29] = captured ELISA, sCD4 0.25 μg/ml
[30] = Human immunodeficiency virus 1, PBMC
[31] = Human immunodeficiency virus 1, MT2, read-out: IC50 (μM) ± S.D., inhibitory activity on infection
[32] = at the dose given as CC50 bound

CN1C(=O)[C@@H](c2cc(Cl)c(O)c(Cl)c2)NC(=O)[C@@H]2NC(=O)[C@@H](c3cc(Cl)c(O)c(Cl)c3)NC(=O)[C@H](NC(=O)C(=O)c3cc(Cl)c(O)c(Cl)c3)Cc3c[nH]c4c(cccc34)-c3cc2cc(c3O)Oc2ccc(cc2)C[C@H]1C(=O)N[C@@H](C(=O)O)c1ccc(O)cc1 [Chloropeptin]
Kd [1]: 5.4 µM
Rmax (RU) ([1]; SPR, ligand CD4): 76.8 RU
koff ([1]; read-out: Koff (s − 1)): 0.018 s⁻¹
IC50 [2, 29]: 0.31 µM
IC50 [3, 29]: 0.31 ± 0.2 µM
Kd ([4]; SPR, ligand gp120): 2.5 µM
Rmax (RU) ([4]; SPR, ligand gp120): 1160 RU
koff ([4]; SPR, ligand gp120): 0.011 s⁻¹

Cc1nc(C(NC(=O)C(=O)Nc2ccc(Cl)c(F)c2)C2CCCCN2)sc1CO (stereo not shown) [Compound 27, N^1-(4-chloro-3-fluorophenyl)-N^2-((5-(hydroxymethyl)-4-methylthiazol-2-yl)(piperidin-2-yl)methyl)oxalamide.2HCl]
IC50 [5, 30]: ~84 µM
CC50 at 4 days [6]: ~83 µM
IC50 [7, 31]: 6.2 ± 0.9 µM
IC50 [8, 30]: 9.9 ± 0.8 µM
IC50 [9, 30]: 10.7 ± 0.3 µM
CC50 at 7 days [10]: > 104 µM
% toxicity at that dose (number in parenthesis), PBMC [11]: (40%)
IC50 [12, 31]: 13.8 ± 2.3 µM
IC50 [13, 30]: 15.3 ± 1.7 µM
IC50 [14, 31]: 35.7 ± 2.6 µM
IC50 [15, 31]: 6.5 ± 0.9 µM
IC50 ([16]; Human immunodeficiency virus 1, BAL, read-out: IC50 (μM) ± S.D., inhibitory activity on infection): 43.8 ± 5 µM
IC50 [17, 31]: 18.5 ± 1.8 µM
IC50 [18]: 4.1 ± 0.7 µM
IC50 [19, 30]: 12.5 ± 2.4 µM
IC50 [20, 30]: ~84 µM
IC50 [21, 30]: 11 ± 0.5 µM
IC50 [22, 30]: 3.2 ± 0.7 µM
IC50 [23, 30]: 16.3 ± 1.7 µM

Cc1ccc(NC(=O)C(=O)NC(c2nc(C)c(CCO)s2)C2CCCCN2)cc1F.Cl (stereo not shown) [Compound 38, N^1-(3-fluoro-4-methylphenyl)-N^2-((5-(2-hydroxyethyl)-4-methylthiazol-2-yl)(piperidin-2-yl)methyl)oxalamide.HCl]
IC50 ([5]; 93IN101, subtype C, PBMC, R5, primary isolate): > 87 µM
CC50 ([24]; listed as NBD-110017): > 87 µM
CC50 [24]: ~85 µM
% toxicity at that dose (number in parenthesis), MT-2 cells [24, 32]: 30%
IC50 ([7]; read-out: IC50 (μM) ± S.D., inhibitory activity on infection, HIV-1 RF/L-323-12-3, subtype B, MT-2, X4, protease resistant isolate): 10.2 ± 0.4 µM
IC50 ([8]; 93BR029, subtype F, PBMC, R5, primary isolate): 8.6 ± 0.4 µM
IC50 ([9]; 92UG031, subtype A, PBMC, R5, primary isolate): 10.1 ± 1.8 µM
CC50 [11]: > 64 µM
% toxicity at that dose (number in parenthesis), PBMC [11]: 0%
IC50 ([12]; read-out: IC50 (μM) ± S.D., inhibitory activity on infection, RF, subtype B, MT-2, R5X4, laboratory strain): 12.4 ± 1.4 µM
IC50 ([13]; RU570, subtype G, PBMC, R5, primary isolate): 15.8 ± 0.9 µM
IC50 ([14]; read-out: IC50 (μM) ± S.D., inhibitory activity on infection, SF2, subtype B, MT-2, R5X4, laboratory strain): 27.6 ± 1.7 µM
IC50 ([15]; read-out: IC50 (μM) ± S.D., inhibitory activity on infection, AZT-R, subtype B, MT-2, X4, RT-resistant isolate): 14.5 ± 1.5 µM
IC50 ([25]; read-out: IC50 (μM) ± S.D., inhibitory activity on infection, IIIB, subtype B, MT-2, X4, laboratory strain): 5.3 ± 1.7 µM
IC50 ([25]; read-out: MT-2 Cells IC50 (μM ± SD), multi-cycle assay, MT-2 cells, HIV-1 IIIB): 3.7 ± 0.7 µM
IC50 ([16]; read-out: IC50 (μM) ± S.D., inhibitory activity on infection, BaL, subtype B, R5, laboratory strain): 30.3 ± 1.4 µM
CC50 ([26]; TZM-bl cells, XTT, 3 days, read-out: TZM-bl cells CC50 (μM ± SD)): > 85 µM
% toxicity at that dose (number in parenthesis), TZM-bl cells [26, 32]: 40%
IC50 ([17]; read-out: IC50 (μM) ± S.D., inhibitory activity on infection, MN, subtype B, MT-2, X4, laboratory strain): 14.9 ± 2.6 µM
IC50 ([19]; 92US657, subtype B, PBMC, R5, primary isolate): 6.8 ± 0.7 µM
IC50 ([20]; BCF02, Group 0, PBMC, R5, primary isolate): ~87 µM
IC50 [27]: 8.4 ± 0.4 µM
IC50 ([21]; 93TH060, subtype E, PBMC, R5, primary isolate): 14.7 ± 0.7 µM
IC50 ([22]; 89.6, subtype B, PBMC, R5X4, laboratory strain): 14.7 ± 1.1 µM
IC50 ([23]; SF162, subtype B, PBMC, R5, laboratory strain): 16.5 ± 4 µM

CC1(C)CC(NC(=O)C(=O)Nc2ccc(Br)cc2)CC(C)(C)N1 [NBD-557]
CC50 [24]: 223 µM
CC50 [11]: 603 µM
IC50 [28]: 13.4 µM
binding to CD4 ([1]; SPR): not to CD4
IC50 [2]: 3.08 ± 0.6 µM
IC50 [3]: 4.21 ± 1.1 µM
Kd [4]: 42 µM
Koff (s − 1) [4]: 4.7 × 10−2 s − 1
Rmax (RU) [4]: 1.48 RU
